Columns and labels:
[1] = In vivo clearance of tyrosyl-arginine after intravenous bolus in rats; parameters: species or system Sprague Dawley rats; conditions: rat
Description: In vivo clearance was assessed in five large (370 g) mature (122 days old) Sprague Dawley rats. The animals were anaesthetised with sodium pentabarbitone and remained anaesthetised during the entire procedure. A large bolus of tyrosyl-arginine (82.1 2.8 μg/g rat, Mean SD) was injected intravenously into a central vein and rapid blood samples (n=11) (total volume=2.0 ml) were obtained through a central venous catheter over 20 minutes. We observed that tyrosyl-arginine was cleared rapidly by rats with an approximate half life of 30 seconds. There was a large and rapid rise in Arg concentration reaching a maximum after 2.5 min and falling to baseline levels after 20 minutes.

[2] = In vitro clearance of tyrosyl-arginine in human whole blood
Description: Supplementation of an intravenous nutrition solution with the dipeptide tyrosyl-arginine facilitates the infusion of the poorly soluble amino acid tyrosine. We have initiated the first investigations into the metabolism of exogenous tyrosyl-arginine (TryArg). In vitro clearance of tyrosyl-arginine, and the constituent amino acids arginine and tyrosine was assessed in blood from two healthy normal volunteers on five occasions. Whole blood was incubated with tyrosyl-arginine (initially 547 nmol/ml) at 37°°C. for 40 minutes. Throughout this period samples were taken to determine concentration of the dipeptide and individual amino acids.

Row | time of fall to baseline levels ([1]; iv) | time to maximum concentration ([1]; iv) | time over which the concentration, after its rise, fell to baseline [2] | half-life ([1]; Sprague Dawley, 82.1 μg/g rat, anaesthetised rats, intravenous bolus of tyrosyl-arginine into a central vein, read-out: approximate half life (in vivo clearance) (converted)) | time by which degradation was complete ([2]; human whole blood, 37°C) | half-life at 547 nmol/ml ([2]; human, blood) | concentration in whole blood (mean) ([2]; time 0 min, human whole blood incubated with tyrosyl-arginine (initially 547 nmol/ml) at 37°C) | concentration in whole blood (mean) ([2]; time 0.5 min, human whole blood incubated with tyrosyl-arginine at 37°C) | concentration in whole blood (mean) ([2]; time 1.0 min, human whole blood incubated with tyrosyl-arginine at 37°C) | concentration in whole blood (mean) ([2]; time 2.0 min, human whole blood incubated with tyrosyl-arginine at 37°C) | concentration in whole blood (mean) ([2]; time 5.0 min, human whole blood incubated with tyrosyl-arginine at 37°C) | concentration in whole blood (mean) ([2]; time 10.0 min, human whole blood incubated with tyrosyl-arginine at 37°C) | concentration in whole blood (mean) ([2]; time 20.0 min, human whole blood incubated with tyrosyl-arginine at 37°C) | concentration in whole blood (mean) ([2]; time 40.0 min, human whole blood incubated with tyrosyl-arginine at 37°C) | concentration in whole blood (mean) ([2]; time 60.0 min, human whole blood incubated with tyrosyl-arginine at 37°C) | concentration in whole blood (mean) ([2]; time 120.0 min, human whole blood incubated with tyrosyl-arginine at 37°C) | Compound
1 | 20 min | 2.5 min | 2 h | – | – | – | – | – | – | – | – | – | – | – | – | – | N=C(N)NCCC[C@H](N)C(=O)O [Arg, arginine]
2 | – | – | 2 h | – | – | – | – | – | – | – | – | – | – | – | – | – | N[C@@H](Cc1ccc(O)cc1)C(=O)O [Tyr, tyrosine]
3 | – | – | – | ~0.5 min | ≤ 2 h | 4.2 min | 547 µM | 389.85 µM | 338.65 µM | 278.94 µM | 245.52 µM | 220.90 µM | 149.77 µM | 547.0 µM | 55.57 µM | 0 µM | N=C(N)NCCC[C@H](NC(=O)[C@@H](N)Cc1ccc(O)cc1)C(=O)O [Tyr--Arg, tyrosyl-arginine]
